According to ChEMBL document CHEMBL2057076, “C-6 aryl substituted 4-quinolone-3-carboxylic acids as inhibitors of hepatitis C virus” (Bioorg Med Chem, 2012):
Activity calls are given as the source filed them. The rule behind the calls is not given here.

Key:
[1] = Cytotoxicity against human HuH7 cells assessed as cell viability at 10 uM after 3 days by CellTiter Glo assay; type: cell-based, Huh-7; details: read-out: Activity
Hepatitis C virus [2] = assay: Antiviral activity at Hepatitis C virus genotype 1b infected in human HuH7 cells assessed as inhibition of viral replication at 10 uM after 3 days by renilla luciferase reporter gene assay; type: functional, Hepacivirus hominis; details: Huh-7, 72 h
Hepatitis C virus [3] = assay: Antiviral activity at Hepatitis C virus genotype 1b infected in human HuH7 cells assessed as inhibition of viral replication at 0.5 uM after 3 days by renilla luciferase reporter gene assay; type: functional, Hepacivirus hominis; details: Huh-7, 72 h
[4] = Cytotoxicity against human HuH7 cells assessed as cell viability at 0.5 uM after 3 days by CellTiter Glo assay; type: cell-based, Huh-7; details: read-out: Activity
Hepatitis C virus [5] = assay: Antiviral activity at Hepatitis C virus genotype 1b infected in human HuH7 cells assessed as inhibition of viral replication at 0.5 uM after 3 days by quantitative RT-PCR analysis; type: functional, Hepacivirus hominis; details: Huh-7, 72 h
Hepatitis C virus [6] = assay: Antiviral activity at Hepatitis C virus genotype 1b infected in human HuH7 cells assessed as inhibition of viral replication after 3 days by renilla luciferase reporter gene assay; type: functional, organism-based, Hepacivirus hominis; details: Huh-7, 72 h
Hepacivirus hominis [7] = assay: Inhibition of Hepatitis C virus NS5B delta 55 assessed as [3H][…] incorporation on a poly(A) template at 10 uM after 3 hrs by scintillation proximity assay
Hepacivirus hominis [8] = assay: Inhibition of Hepatitis C virus NS5B delta 55 assessed as [3H][…] incorporation on a poly(A) template at 50 uM after 3 hrs by scintillation proximity assay
[9] = Cytotoxicity against human HuH7 cells assessed as cell viability after 3 days by CellTiter Glo assay; type: cell-based, Huh-7
[10] = Therapeutic index, ratio of CC50 for human HuH7 cells to EC50 for Hepatitis C virus genotype 1b; type: cell-based, Huh-7; details: read-out: Ratio CC50/EC50
Hepatitis C virus [11] = assay: Antiviral activity at Hepatitis C virus genotype 1b infected in human HuH7 cells assessed as inhibition of viral replication at 10 uM after 3 days by quantitative RT-PCR analysis; type: functional, Hepacivirus hominis; details: Huh-7, 72 h
Hepacivirus hominis [12] = assay: Inhibition of Hepatitis C virus NS5B delta 55 assessed as [3H][…] incorporation on a poly(A) template at 1 uM after 3 hrs by scintillation proximity assay

Row | SMILES | viability at 72 h, 10 µM [1] [%] | inhibition at 10 µM (Hepatitis C virus [2]) [%] | other results
1 | O=C(O)c1cn(CCO)c2cc(-c3cc4ccccc4o3)ccc2c1=O | 94 | 14 | 
2 | C[C@@]1(O)[C@H](O)[C@@H](CO)O[C@H]1n1cnc2c(N)ncnc21 |  |  | inhibition at 0.5 µM (Hepatitis C virus [3]): 98%; viability at 72 h, 0.5 µM [4]: 87%; inhibition at 0.5 µM (Hepatitis C virus [5]): 95%
3 | O=C(O)c1cn(CCO)c2cc(-c3cccs3)ccc2c1=O | 100 | 14 | 
4 | NC(=O)c1ncn([C@@H]2O[C@H](CO)[C@@H](O)[C@H]2O)n1 [RIBAVIRIN] | 92 | 44 | 
5 | O=C(O)c1cn(CCO)c2ccc(I)cc2c1=O | 100 | 21 | 
6 | O=C(O)c1cn(CCO)c2ccc(-c3cccs3)cc2c1=O | 100 | 40 | EC50 (Hepatitis C virus [6]): 36 µM; inhibition (Hepacivirus hominis [7]): Active; inhibition (Hepacivirus hominis [8]): Active; CC50 at 72 h [9]: > 50 µM; selectivity ratio [10]: > 1.4
7 | CC(=O)c1ccc(-c2ccc3c(c2)c(=O)c(C(=O)O)cn3CCO)s1 | 100 | 0 | 
8 | O=C(O)c1cn(CCCO)c2ccc(-c3cc4ccccc4o3)cc2c1=O | 100 | 44 | EC50 (Hepatitis C virus [6]): 23 µM; CC50 at 72 h [9]: 25 µM; selectivity ratio [10]: 1.1
9 | O=C(O)c1cn(CCCO)c2cc(-c3cccs3)ccc2c1=O | 97 | 12 | 
10 | O=C(O)c1cn(CCO)c2ccc(-c3ccoc3)cc2c1=O | 100 | 0 | 
11 | O=C(O)c1cn(CCO)c2cc(-c3ccco3)ccc2c1=O | 100 | 15 | 
12 | O=C(O)c1cn(CCO)c2ccc(-c3cc4ccccc4o3)cc2c1=O | 100 | 63 | EC50 (Hepatitis C virus [6]): 5.8 µM; inhibition at 10 µM (Hepatitis C virus [11]): 70%; inhibition (Hepacivirus hominis [7]): inactive; inhibition (Hepacivirus hominis [8]): inactive; CC50 at 72 h [9]: 34 µM; selectivity ratio [10]: 5.9
13 | O=C(O)c1c[nH]c2ccc(-c3cccs3)cc2c1=O | 100 | 0 | 
14 | O=C(O)c1cnc2ccc(I)cc2c1O | 100 | 22 | 
15 | O=C(O)c1cn(CCO)c2ccc(-c3ccco3)cc2c1=O | 100 | 20 | 
16 | O=C(O)c1cn(Cc2ccccc2)c2ccc(I)cc2c1=O | 99 | 0 | 
17 | O=C(O)c1c[nH]c2ccc(-c3ccco3)cc2c1=O | 100 | 0 | 
18 | N#Cc1cc(COc2cccc(C(=O)/C=C(\O)C(=O)O)c2)c(Cl)cc1Cl |  |  | inhibition (Hepacivirus hominis [12]): Active
19 | COc1ccc(-c2ccc3c(c2)c(=O)c(C(=O)O)cn3CCO)cc1 | 95 | 0 | 
20 | CCCn1cc(C(=O)O)c(=O)c2cc(-c3cc4ccccc4o3)ccc21 | 91 | 4 | 
21 | O=C(O)c1cn(CCO)c2ccc(-c3cc4ccccc4s3)cc2c1=O | 100 | 58 | EC50 (Hepatitis C virus [6]): 5.9 µM; inhibition (Hepacivirus hominis [7]): Active; inhibition (Hepacivirus hominis [8]): Active; CC50 at 72 h [9]: 15 µM; selectivity ratio [10]: 2.5
